This is an account of results in patent US10604554B2, “Double-acylated GLP-1 derivatives” (Novo Nordisk A/S, priority 2012, dated 2020).

In general, IC50 refers to the concentration at which inhibition is half-maximal. The EC50 is the concentration giving half of the maximal effect. As a reminder, the half-life is how long it takes for the measured level to halve. Low readings indicate rapid decline, high ones slow decline.

The target in series [1] is T1, human GLP-1 receptor (Homo sapiens, UniProt P43220).
T1 construct: expressed in transfected cells; host or cells: BHK cells, clone FCW467-12A/KZ10-1 (parent line BHKTS13), further transfected with CRE luciferase
In words: GLP-1 receptor binding (SPA, displacement of 125I-GLP-1). The method, boiled down: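 Tracer [125I]-GLP-1(7-36)NH2 at 0.06 nM final competed on hamster stably transfected cell membranes captured by WGA SPA beads; 120 min, 30 °C, scintillation count.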

Series [2] concerns the target T1, human GLP-1 receptor. The series can be described thus: In vitro potency (CRE luciferase; whole cells). It is filed as cell-based. The following applies: BHK cells. The gist of the method:
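Reporter: CRE-luciferase in BHK cells stably expressing human GLP-1R, 5×10^3 cells/well; compounds tested in buffer containing 0% or 1% HSA.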

The nature of series [3]: in vivo. The following applies: male, Sprague Dawley, rat, iv.
Method: The purpose of this Example is to investigate half-life in vivo in rat.
In vivo pharmacokinetic studies in rats were performed with the GLP-1 derivatives of a number of the Example compounds, as described in the following.
Male Sprague Dawley rats of same age with a body weight of approximately 400 g were obtained from Taconic (Denmark) and assigned to the treatments by simple randomisation on body weight, approximately 4 rats per group.
The GLP-1 derivatives (approximately 6 nmol/ml) were dissolved in 50 mM sodium phosphate, 145 mM sodium chloride, 0.05% tween 80, pH 7.4. Intravenous injections (1.0 ml/kg) of the compounds were given with a syringe in the tail vein of conscious rats. Blood was sampled from vena sublingualis for 5 days post dosing. Blood samples (200 μl) were collected in EDTA buffer (8 mM) and then centrifuged at 4° C. and 10000 G for 5 minutes. Plasma samples were kept at −20° C. until analyzed for plasma concentration of the respective GLP-1 compound.
The donor beads were coated with streptavidin, while acceptor beads were conjugated with a monoclonal antibody recognising a mid-/C-terminal epitope of the peptide. Another monoclonal antibody, specific for the N-terminus, was biotinylated. The three reactants were combined with the analyte and formed a two-sited immuno-complex. Illumination of the complex released singlet oxygen atoms from the donor beads, which were channeled into the acceptor beads and triggered chemiluminescence which was measured in an Envision plate reader. The amount of light was proportional to the concentration of the compound.
Plasma concentration-time profiles were analyzed using Phoenix WinNonLin ver. 6.2, Pharsight Inc., Mountain View, Calif., USA), and the half-life (T1/2) calculated using individual plasma concentration-time profiles from each animal.
Series [4] in a line: in vivo. The following applies: male, Göttingen, minipig, iv.

Read-outs that look alike come from different tables or passages of the source.

T1 sequence (P43220 24-463): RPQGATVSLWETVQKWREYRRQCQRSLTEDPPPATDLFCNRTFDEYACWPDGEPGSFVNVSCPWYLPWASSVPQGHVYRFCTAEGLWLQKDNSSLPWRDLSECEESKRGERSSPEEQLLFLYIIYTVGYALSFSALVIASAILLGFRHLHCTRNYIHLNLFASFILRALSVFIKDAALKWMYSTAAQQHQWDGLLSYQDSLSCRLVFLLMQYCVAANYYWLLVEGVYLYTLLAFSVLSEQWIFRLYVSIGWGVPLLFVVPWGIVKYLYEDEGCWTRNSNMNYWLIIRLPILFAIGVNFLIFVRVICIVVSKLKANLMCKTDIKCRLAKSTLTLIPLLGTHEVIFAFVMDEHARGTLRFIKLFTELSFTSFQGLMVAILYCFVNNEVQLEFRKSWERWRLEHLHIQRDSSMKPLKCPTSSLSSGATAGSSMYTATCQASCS

With `CC[C@H](C)[C@H](NC(=O)[C@H](Cc1ccccc1)NC(=O)[C@H](CCC(=O)O)NC(=O)[C@H](CCCCNC(=O)[C@@H](N)CCCCNC(=O)COCCOCCNC(=O)CC[C@H](NC(=O)CC[C@H](NC(=O)CCCCCCCCCCCCCCC(=O)O)C(=O)O)C(=O)O)NC(=O)[C@H](C)NC(=O)[C@H](C)NC(=O)[C@H](CCC(N)=O)NC(=O)CNC(=O)[C@H](CCC(=O)O)NC(=O)[C@H](CC(C)C)NC(=O)[C@H](Cc1ccc(O)cc1)NC(=O)[C@H](CO)NC(=O)[C@H](CO)NC(=O)[C@@H](NC(=O)[C@H](CC(=O)O)NC(=O)[C@H](CO)NC(=O)[C@@H](NC(=O)[C@H](Cc1ccccc1)NC(=O)[C@@H](NC(=O)CNC(=O)[C@H](CCC(=O)O)NC(=O)C(C)(C)NC(=O)[C@@H](N)Cc1c[nH]cn1)[C@@H](C)O)[C@@H](C)O)C(C)C)C(=O)N[C@@H](C)C(=O)N[C@@H](Cc1c[nH]c2ccccc12)C(=O)N[C@@H](CC(C)C)C(=O)N[C@H](C(=O)N[C@@H](CCCNC(=N)N)C(=O)NCC(=O)N[C@@H](CCCNC(=N)N)C(=O)N[C@@H](CCCCNC(=O)[C@@H](N)CCCCNC(=O)COCCOCCNC(=O)CC[C@H](NC(=O)CC[C@H](NC(=O)CCCCCCCCCCCCCCC(=O)O)C(=O)O)C(=O)O)C(=O)O)C(C)C` [Example 11, N^ε26-[(2S)-2-amino-6-[[2-[2-[2-[[(4S)-4-carboxy-4-[[(4S)-4-carboxy-4-(15-carboxypentadecanoylamino)butanoyl]amino]butanoyl]amino]ethoxy]ethoxy]acetyl]amino]hexanoyl], N^ε37-[(2S)-2-amino-6-[[2-[2-[2-[[(4S)-4-carboxy-4-[[(4S)-4-carboxy-4-(15-carboxypentadecanoylamino)butanoyl]amino]butanoyl]amino]ethoxy]ethoxy]acetyl]amino]hexanoyl]-[Aib^8,Arg^34, Lys^37]-GLP-1-(7-37)-peptide], the 50% inhibitory concentration (IC50) at human GLP-1 receptor [1] (0.001% HSA (low albumin), read-out: Receptor binding affinity IC50 (low HSA)) was found to be 0.74 nM. In addition, the IC50 (high HSA) at human GLP-1 receptor [1] (Receptor binding affinity IC50 (high HSA), 2.0% HSA (high albumin), heading: Receptor binding affinity IC50) worked out at 522 nM. The EC50 is 0.0073 nM on human GLP-1 receptor [2] (0% HSA, read-out: In vitro potency (CRE luciferase) EC50 (0% HSA)) and 1.57 nM at human GLP-1 receptor [2] (In vitro potency (CRE luciferase) EC50 (1% HSA), 1% HSA). Further, the half-life was 28 h in the series “in vivo [3]” and 95 h in “in vivo [4]”.
